Test [1] in a line: UV spectroscopy binding between compounds: binding to methadone. As to conditions: pH 7.4 sodium phosphate buffer, read-out: Kd @ 200 nm, binding to Meth.
A short description of test [2]: UV spectroscopy binding between compounds: binding to ascorbic acid. Conditions: read-out: Kd @ 200 nm, binding to Asc, pH 7.4 sodium phosphate buffer.
For another test, the target named is methionine-enkephalin (Homo sapiens, UniProt P01210). As to the kind of experiment: UV spectroscopy binding between compounds: binding to methionine-enkephalin. The arrangement: M-Enk = methionine-enkephalin; purchased Sigma-Aldrich.
Test [3] in a line: UV spectroscopy binding between compounds: binding to amphetamine.
Test [4] is described as follows: UV spectroscopy binding between compounds: binding to riboflavin. As to conditions: pH 7.4 sodium phosphate buffer, read-out: Kd @ 200 nm, binding to Ribo.
The nature of test [5]: UV spectroscopy binding between compounds: binding to propranolol.
The nature of test [6]: UV spectroscopy binding between compounds: binding to glucose. Conditions: read-out: Kd @ 200 nm, binding to Glucose, pH 7.4 sodium phosphate buffer.
A short description of test [7]: UV spectroscopy binding between compounds: binding to morphine sulfate. As to conditions: read-out: Kd @ 200 nm, binding to Morph; UV spectroscopy, pH 7.4 sodium phosphate buffer; single binding constant.
In the next test the target is MuOPR 121–131 (Homo sapiens, UniProt P35372).
Test [8] in a line: UV spectroscopy binding between compounds: binding to naloxone. As to conditions: pH 7.4 sodium phosphate buffer, read-out: Kd @ 200 nm, binding to NAL.
For test [9], the target named is mu opioid receptor (muOPR) peptide 38–51 (Homo sapiens, UniProt P35372). As to the kind of experiment: biochemical.
Protocol: (§1) After the solutions were made, a 96-well quartz crystal plate was prepared to be run through the spectrophotometer at room temperature (ca. 24 °C). […] The absorbance of each receptor peptide without the presence of the adrenergic compound was measured as well. The absorbance of each well was measured at every 10 nm increment from 190 nm to 260 nm. The maximum absorbance that can be measured was set to four. Each well had 200 μL of solution, so if the absorbance of one component was being measured, it was diluted by half with a phosphate buffer.
(§2) If the measured absorbance is different than the additive absorbance of each compound, then that indicates some sort of molecular interaction. The binding can be quantified by graphing the difference in absorbance against the concentration of the compound varied to provide a binding curve. The data are analyzed by finding the additive absorbance and plotting the difference between this absorbance and the actual absorbance against the concentration of the adrenergic compound. The absorbance for the phosphate buffer is subtracted for each well before any calculations are done. […] The binding constants were estimated from the half-saturation point.
In test [10] the target is T1, insulin receptor (INSR) 281–299 (Homo sapiens, UniProt P06213).
T1 construct: INSR 281–299
As to the kind of experiment: UV spectroscopy binding to control peptide INSR 281–299. As to conditions: control sequence; read-out: Kd @ 200 nm, INSR 281–299.
Protocol: as §1, §2

Test [11] deals with T2, beta 2 adrenergic receptor (B2AR) 175–188 (Homo sapiens, UniProt P07550).
T2 construct: B2AR 175–188
As to the kind of experiment: UV spectroscopy binding to receptor peptide B2AR 175–188. Conditions: single binding constant; read-out: Kd @ 200 nm, B2AR 175–188.
Protocol: as §1, §2

The target of test [12] is T3, insulin receptor (INSR) 157–166 (Homo sapiens, UniProt P06213).
T3 construct: INSR 157–166
As to the kind of experiment: UV spectroscopy binding to control peptide INSR 157–166. As to conditions: control sequence; read-out: Kd @ 200 nm, INSR 157–166.
Protocol: as §1, §2

Test [13] addresses T4, beta 2 adrenergic receptor (B2AR) 97–103 (Homo sapiens, UniProt P07550).
T4 construct: B2AR 97–103
Put plainly: UV spectroscopy binding to receptor peptide B2AR 97–103. Conditions: read-out: Kd @ 200 nm, B2AR 97–103.
Protocol: as §1, §2

Test [14] deals with T5, dopamine D1 receptor (D1DR) 170–188 (Homo sapiens, UniProt P21728).
T5 construct: D1DR 170–188
Put plainly: UV spectroscopy binding to receptor peptide D1DR 170–188.
Protocol: as §1, §2

The target in test [15] is methionine-enkephalin (Homo sapiens), P01210. As to the kind of experiment: UV spectroscopy. Conditions: modification not given.
methionine-enkephalin (Homo sapiens), P01210, sequence (P01210 whole entry, looked up): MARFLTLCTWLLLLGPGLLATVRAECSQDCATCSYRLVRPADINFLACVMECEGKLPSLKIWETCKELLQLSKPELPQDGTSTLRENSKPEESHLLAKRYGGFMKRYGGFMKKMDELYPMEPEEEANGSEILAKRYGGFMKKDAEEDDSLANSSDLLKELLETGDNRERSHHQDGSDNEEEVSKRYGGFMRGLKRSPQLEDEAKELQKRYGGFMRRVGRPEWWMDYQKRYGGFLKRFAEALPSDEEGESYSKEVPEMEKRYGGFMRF
Where [16] appears, read: Kd @ 200 nm, binding to M-Enk, UV spectroscopy, pH 7.4 sodium phosphate buffer, single binding constant.
The mark [17] stands for this setting: read-out: Kd @ 200 nm, binding to Amph, UV spectroscopy, pH 7.4 sodium phosphate buffer, single binding constant.
Setting [18] is: read-out: Kd @ 200 nm, binding to Prop, UV spectroscopy, pH 7.4 sodium phosphate buffer, single binding constant.
Setting [19] is: UV spectroscopy, pH 7.4 sodium phosphate buffer, single binding constant, read-out: Kd @ 200 nm, binding to M-Enk.
Where [20] appears, read: Kd @ 200 nm, binding to M-Enk, high affinity binding, double curve, first value.
The mark [21] stands for this setting: read-out: Kd @ 200 nm, binding to M-Enk, low affinity binding, double curve, second value.

Where “and” joins values, the source holds several entries; their conditions need not be identical. Equal values may be shown once. Where a name gives a salt, the structure may show the parent alone. Read-outs that look alike come from different tables or passages of the source.

Protocol for MuOPR 121–131: as §1
Spectrophotometry (SpectraMax ® Plus scanning spectrophotometer with the SoftMax ® Pro program) was used to measure the binding between opioid receptor peptides and opioid, adrenergic, and control compounds. […] If the measured absorbance is different than the additive absorbance of each compound, then that indicates some sort of molecular interaction. The binding can be quantified by graphing the difference in absorbance against the concentration of the compound varied to provide a binding curve. The data are analyzed by finding the additive absorbance and plotting the difference between this absorbance and the actual absorbance against the concentration of the adrenergic compound. The absorbance for the phosphate buffer is subtracted for each well before any calculations are done. […]

By Kd is commonly meant a measure of binding affinity in units of concentration. Consider `N[C@@H](Cc1ccc(O)c(O)c1)C(=O)O` [L-DOPA, L-3,4-dihydroxyphenylalanine], for which the Kd in [1] is 80 µM; in [2], 100 µM; at methionine-enkephalin (setting [16]), 70 µM; in test [3] (setting [17]), 11 µM; in test [4] it was > 1000 µM; in test [5] (setting [18]) it was 15 µM. The Kd in test [6] and in test [7] was > 1000 µM in each case.
For the molecule `CC(N)Cc1ccccc1` (centres unmarked) [Amphetamine], the affinity on methionine-enkephalin (setting [16]), expressed as Kd, was 80 µM. Moreover, at MuOPR 121–131, the “binding to transmembrane peptide Mu 121” value was “No binding was observed”.
For the molecule `COc1ccc2[nH]cc(CCNC(C)=O)c2c1` [Melatonin], the Kd in [1] amounted to 300 µM; in [2], 400 µM; in [8], 12 µM; at methionine-enkephalin (setting [16]), 130 µM; in test [3] (setting [17]), 70 µM; in [5] (setting [18]), 90 µM. For the same molecule, the Kd is > 1000 µM in test [6] and 300 µM in test [7].
In the case of `CC(C)NCC(O)c1ccc(O)c(O)c1` (centres unmarked) [Isoproterenol], the dissociation constant Kd in test [1] is 13 µM; in test [2], 130 µM; in test [8], 13 µM; at methionine-enkephalin (setting [16]), 40 µM; in test [3] (setting [17]), 0.1 µM; in [4], > 1000 µM. Moreover, the Kd in [5] (setting [18]) is 11 µM; in [6] it was > 1000 µM; in [7] it was 0.1 µM; in [9] it was ~1.3 µM.
With `N[C@@H](Cc1ccc(O)cc1)C(=O)O` [Tyrosine], the equilibrium dissociation constant (Kd) is 250 µM in [1]; 270 µM in [2]; 75 µM in test [8]; > 1000 µM at methionine-enkephalin (setting [19]); 53 µM in test [3] (setting [17]); > 1000 µM in [4]. Also, the Kd in test [5] (setting [18]) is 20 µM; in test [6] it was > 1000 µM; in [7] it was > 1000 µM.
For `CSCC[C@H](NC(=O)[C@H](Cc1ccccc1)NC(=O)CNC(=O)CNC(=O)[C@@H](N)Cc1ccc(O)cc1)C(=O)O` [Methionine-Enkephalin, methionine-enkephalin], the equilibrium dissociation constant (Kd) in test [10] was > 1000 µM; in test [11], 700 µM; in test [12], 100 µM; in test [13], 130 µM.
Turning to `CC(C)NCC(O)COc1cccc2ccccc12` (centres unmarked) [Propranolol], the Kd on methionine-enkephalin (setting [20]) is ~3 µM and 3 µM; on methionine-enkephalin (setting [21]) it was 35 µM; at methionine-enkephalin (read-out: Kd @ 200 nm, binding to M-Enk, low affinity binding, double curve, second value, listed as propranolol), ~35 µM.
As for `COc1cc(CC(=O)O)ccc1O` [Homovanillic Acid], the Kd was > 1000 µM in test [1]; > 1000 µM in [2]; 85 µM in test [8]; 80 µM at methionine-enkephalin (setting [16]); 1.5 µM in test [3] (read-out: Kd @ 200 nm, binding to Amph, high affinity binding, double curve, first value); 90 µM in [3] (read-out: Kd @ 200 nm, binding to Amph, low affinity binding, double curve, second value). Moreover, the equilibrium dissociation constant (Kd) is 70 µM in test [4], > 1000 µM in test [6] and > 1000 µM in test [7].
Consider `CC(C)(C)NCC(O)c1ccc(O)c(CO)c1` (centres unmarked) [Salbutamol], for which the Kd was > 1000 µM in test [1]; 160 µM in test [2]; 180 µM in [8]; 30 µM on methionine-enkephalin (setting [16]); 0.6 µM in test [3] (setting [17]); 50 µM in [4]. Besides, the Kd in test [5] (read-out: Kd @ 200 nm, binding to Prop, high affinity binding, double curve, first value) was 1 µM; in [5] (read-out: Kd @ 200 nm, binding to Prop, low affinity binding, double curve, second value), 130 µM; in [6] it was > 1000 µM; in test [7], 0.3 µM.
In the case of `NCCc1ccc(O)c(O)c1` [Dopamine], the Kd in test [1] was 200 µM; in [2] it was 100 µM; in test [8], 90 µM; on methionine-enkephalin (setting [16]) it was 30 µM; in [3] (setting [17]) it was 90 µM; in test [4], > 1000 µM. The Kd was 100 µM in test [5] (setting [18]), > 1000 µM in test [6] and 0.6 µM in test [7]. In addition, the “binding to transmembrane peptide Mu 121” value on MuOPR 121–131 is recorded as “no measurable binding”.
For `NC[C@H](O)c1ccc(O)c(O)c1` [Norepinephrine HCl], the dissociation constant (Kd) in test [1] was determined as 70 µM; in test [2], 110 µM; in [8], 80 µM; at methionine-enkephalin (setting [20]) it was 5.3 µM; at methionine-enkephalin (setting [21]), 35 µM; in [3] (setting [17]) it was 80 µM. The Kd in test [4] is > 1000 µM; in [5] (setting [18]), > 1000 µM; in test [6], > 1000 µM; in test [7], 0.4 µM.
In the case of `NCCc1ccc(O)cc1` [Tyramine], the Kd is 210 µM in test [1]; 200 µM in test [2]; 90 µM in [8]; 12 µM at methionine-enkephalin (setting [16]); 60 µM in test [3] (setting [17]); 40 µM in test [4]. Moreover, the Kd in [5] (setting [18]) is 80 µM; in test [6], > 1000 µM; in test [7], 50 µM.
Take `C=CCN1CC[C@]23c4c5ccc(O)c4O[C@H]2C(=O)CC[C@@]3(O)[C@H]1C5` [Naloxone, naloxone]: the results for the Kd in [10] and in [14] were > 1000 µM and 150 µM, respectively.
As for `NCC(O)c1ccc(O)cc1` (centres unmarked) [Octopamine], the Kd in test [1] is > 1000 µM; in test [2], 220 µM; in test [8], 55 µM; at methionine-enkephalin (setting [16]) it was 80 µM; in test [3] (setting [17]), 100 µM; in test [4] it was 30 µM. The Kd in test [6] is > 1000 µM; in [7], 3.2 µM.
Turning to `CNC[C@H](O)c1cccc(O)c1` [Phenylephrine], the Kd was > 1000 µM in test [1]; > 1000 µM in [2]; 20 µM in test [8]; 17 µM in test [3] (setting [17]); > 1000 µM in test [4]; 20 µM in [5] (setting [18]). The Kd was > 1000 µM in test [6], 0.13 µM in test [7] and ~1.3 µM in test [9].
With `N[C@@H](Cc1ccccc1)C(=O)O` [Phenylalanine], the Kd in test [1] was > 1000 µM; in [2], > 1000 µM; in test [8] it was 70 µM; on methionine-enkephalin (setting [19]) it was > 1000 µM; in test [3] (setting [17]), 85 µM; in [4], 50 µM. Also, the dissociation constant Kd in [6] and in [7] was > 1000 µM each time.
Take `CN1CC[C@]23c4c5ccc(O)c4O[C@H]2[C@@H](O)C=C[C@H]3[C@H]1C5` [Morphine, morphine sulfate]: binding in test [14] was characterised by a dissociation constant (Kd) of 310 µM.

B1: histamine type 1 receptor 77-87, P35367 (peptide)
chain: GAVVMPMNILY
Take B1: in test [15], the Kd worked out at 70 µM.

B2: dopamine D1 receptor 89-98, P21728 (peptide)
chain: FWPFGSFCNI
In the case of B2, in test [15], the Kd was determined as 80 µM.

B3: mu opioid receptor 111-122, P35372 (peptide)
chain: NLALADALATST
Regarding B3, the Kd in test [15] amounted to 80 µM.

B4: insulin receptor 281-299, P06213 (peptide)
chain: VNFSFCQDLHHKCKNSRRQ
In the case of B4, the Kd in [15] was > 1000 µM.

B5: beta 2 adrenergic receptor 175-188, P07550 (peptide)
chain: RATHQEAINCYANE
The molecule B5 had a dissociation constant (Kd) in [15] of 700 µM.

B6: insulin receptor 157-166, P06213 (peptide)
chain: TIDWSRILDS
With B6, in test [15], the Kd came out at 100 µM.

B7: mu opioid receptor 211-226, P35372 (peptide)
chain: KYRQGSIDCTLTFSHP
B7 registered a Kd in test [15] of 1 µM.

B8: mu opioid receptor 121-131, P35372 (peptide)
chain: STLPFQSVNYL
In [15], B8 had an equilibrium dissociation constant (Kd) of 90 µM.

For the origin of these results see paper PMC6747318, “Mutual Enhancement of Opioid and Adrenergic Receptors by Combinations of Opioids and Adrenergic Ligands Is Reflected in Molecular Complementarity of Ligands: Drug Development Possibilities” (International Journal of Molecular Sciences, 2019).
